The record followed here is patent publication US5240929A, “2-heterocyclic-5-hydroxy-1,3-pyrimidines useful as antiinflammatory agents” (Warner-Lambert Company, priority 1992, dated 1993).

One assay has as its system cyclooxygenase. Description: ARBC whole cell cyclooxygenase assay (inhibition of PGF2α formation in RBL-1 cells). It counts as cell-based, rat. The conditions noted are these: RBL-1 whole cells; 50% inhibition of PGF2α formation; calcium ionophore A23187 (5 μM); RIA. Here is the method: (§1) ARBL/ARBC WHOLE CELL 5-LIPOXYGENASE AND CYCLOOXYGENASE ASSAYS The rat basophilic leukemia cell line (RBL-1) was obtained from the American Type Culture Collection (Rockville, Md.). Radioimmunoassay (RIA) kits of LTB4 and PGF2α were obtained from Amersham (Arlington Heights, Ill.) and Seragen (Boston, Mass.), respectively. RBL-1 cells are grown in suspension culture in Eagle's minimum essential medium supplemented with 12% fetal bovine serum at 37° C. in an incubator supplied with air-5% carbon dioxide. Cells are harvested by centrifugation. They are washed with cold phosphate buffered saline pH 7.4 (PBS; NaCl, 7.1 g; NaHPO, 1.15 g; KHPO, 0.2 g; and KCl, 0.2 g/l). Cells are finally suspended in PBS containing 1.0 mM calcium at a density of […] cells/ml. Cells are incubated with and without test agent (in DMSO) (1% DMSO is without effect on arachidonic acid metabolism) for ten minutes at room temperature. Calcium ionophore A23187 (5 μM) is added and cells are incubated for seven minutes at 37° C. The reaction is stopped by chilling the tubes on ice for ten minutes. Cells are separated by centrifugation and the supernatant is stored at -20°. Aliquots (100 μL) are analyzed for LTB4 and PGF2α using radioimmunoassay kits as provided by the supplier. […]

The next assay deals with T1, 5-lipoxygenase (Rattus norvegicus, UniProt P12527).
T1 construct: host or cells: RBL-1 (rat basophilic leukemia)
T1 sequence (P12527 1-673): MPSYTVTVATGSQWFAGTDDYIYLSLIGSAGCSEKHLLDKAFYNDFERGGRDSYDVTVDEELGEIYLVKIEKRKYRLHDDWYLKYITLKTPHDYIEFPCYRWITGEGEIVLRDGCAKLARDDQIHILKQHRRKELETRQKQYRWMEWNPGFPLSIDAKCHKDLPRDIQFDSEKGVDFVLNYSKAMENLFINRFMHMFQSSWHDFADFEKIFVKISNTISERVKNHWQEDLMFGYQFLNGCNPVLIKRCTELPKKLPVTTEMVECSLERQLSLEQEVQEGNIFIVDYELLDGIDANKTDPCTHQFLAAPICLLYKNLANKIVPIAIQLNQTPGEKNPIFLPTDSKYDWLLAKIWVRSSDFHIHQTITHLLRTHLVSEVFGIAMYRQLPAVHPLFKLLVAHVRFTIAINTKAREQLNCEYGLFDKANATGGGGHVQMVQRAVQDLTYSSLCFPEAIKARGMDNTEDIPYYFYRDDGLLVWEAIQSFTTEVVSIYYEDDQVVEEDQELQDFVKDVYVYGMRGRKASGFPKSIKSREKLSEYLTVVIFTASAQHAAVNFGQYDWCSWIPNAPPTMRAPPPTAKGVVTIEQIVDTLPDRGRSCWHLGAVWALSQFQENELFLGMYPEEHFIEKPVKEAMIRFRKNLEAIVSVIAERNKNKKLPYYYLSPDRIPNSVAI
Put plainly: ARBL whole cell 5-lipoxygenase assay (inhibition of LTB4 formation in RBL-1 cells). Format: cell-based. The conditions noted are these: RBL-1 whole cells; 50% inhibition of LTB4 formation; calcium ionophore A23187 (5 μM); RIA. Here is the method:
as §1

As a reminder, the IC50 is the concentration at which inhibition is half-maximal.

On to `CON(C)C(=O)c1nc(C(C)(C)C)c(O)c(C(C)(C)C)n1` [Example 1, 4,6-Bis(1,1-dimethylethyl)-5-hydroxy-N-methoxy-N-methyl-2-pyrimidinecarboxamide], for which the IC50 with cyclooxygenase was determined as 1.35 µM; at 5-lipoxygenase it was 1.18 µM.
